According to US9301961B2, “Autoimmune and inflammatory disorder therapy” (Katholieke Universiteit Leuven, K.U. Leuven R&D, priority 2011, dated 2016):
pIC50: −log10 of the molar value. Like-named read-outs stand apart in the source and are kept apart here.

Experiments:
[1] = test system: murine splenocytes stimulated with α-CD3 antibody; assay: Cytokine secretion after α-CD3 stimulation; assay type: cell-based, Balb/C mice; conditions: Mus musculus, Splenocyte, 24 h
Experimental: The ability of test compounds to inhibit cytokine release by murine splenocytes after stimulation with α-CD3 antibody was also investigated.
2×10^6 splenocytes from Balb/C female mice, 8-10 weeks old in 220 μl of complete medium were stimulated with 0.1 μg of hamster anti mouse CD3ε antibody in presence of various concentrations of test compounds. After 24 h of incubation at 37° C., 5% CO2, supernatant were collected and cytokine titers were determined by flow cytometry according manufacturer protocols (MCB United States, Arlington, Mass., USA).
The results are shown in FIG. 1 compared to a DMSO negative control (▾). […].

[2] = test system: collagen-induced arthritis; assay: Collagen-induced arthritis model; assay type: in vivo, DBA1 male mice; conditions: 40 mg/kg/d oral gavage
Experimental: The activity of test compound in an in vivo model, the collagen-induced arthritis model, was investigated. […] DBA1 male mice, 8-10 weeks old, were distributed in 2 groups according to the treatment. Twelve animals received daily treatment with vehicle (1% methylcellulose), twelve others received compound (3) at 40 mg/kg/d in 1% methylcellulose. The treatment initiation started the day before the intradermal injection at the base of the tail of 100 μg of emulsified chicken collagen II in presence of complete Freund adjuvant and added heat-killed Mycobacterium butyricum. Daily inspection of the mice was performed to weight animals and quantify disease score according to the following scale (score 0: normal; score 1: redness and/or swelling in one joint; score 2: redness and/or swelling in more than one joint; score 3: redness and/or swelling in the entire paw; score 4: deformity and/or ankylosis). On the day of sacrifice (day 42) serum were collected and anti-collagen II antibody titers were determined by ELISA. Joints were harvested, fixed in 6% paraformaldehyde, decalcified in formic acid 6% for 48 h, sliced and stained by hematoxylin and eosin staining. Hyperplasia of the synovium, infiltration of mono and polymorphonuclear cells and pannus formation parameters were scored blindly.

[3] = test system: cardiac allograft rejection; assay: Cardiac allograft transplantation model, treatment day -1 to day 30 (Examples 7 and 8); assay type: in vivo, mice (C57BL/6 donor, Balb/c recipient); conditions: Example 8
Experimental: Inbreed C57BL/6 H-2b and Balb/c H-2d female mice, 8-10 weeks old, 20-25 g, were used as donor and recipient, respectively. Heterotopic heart transplantation was performed by implanting the donor heart on the neck of recipients using conventional microsurgery techniques. Graft beating was checked daily by inspection and palpation. Cessation of beating indicated graft rejection, which was confirmed by histological examination. Housing and all experimental animal procedures were approved by the Institutional Animal Care and Research Advisory Committee of the KU Leuven.

[4] = test system: cardiac allograft rejection; assay: Cardiac allograft transplantation and tolerance model, treatment day 0 to day 30 (Example 9)
From the text: The activity of test compound in a mouse model of cardiac allograft transplantation experiment was investigated. […] Animals with beating graft at day 60 were rechallenged with a second graft from the same strain donor or from a third party donor.
To evaluate the operational tolerance phenotype, animals with functional graft at day 60 were challenged with a second graft from the same donor strain or from a third party. No treatment was applied.
Inbreed C57BL/6 H-2^b and Balb/c H-2^d female mice, 8-10 weeks old, 20-25 g, were used as donor and recipient, respectively. Heterotopic heart transplantation was performed by implanting the donor heart on the neck of recipients using conventional microsurgery techniques. Graft beating was checked daily by inspection and palpation. Cessation of beating indicated graft rejection. The third party donor was C3H H-2^k female mice, 8-10 weeks old, 20-25 gr.
Treatment started the day of transplantation (day 0) until day 30 post transplantation.

[5] = test system: Peripheral blood mononuclear cells (PBMCs) mixed with mitomycin C treated RPMI1788 cells; assay: Mixed lymphocyte reaction (MLR) assay, 3H-thymidine uptake
From the text: In the MLR assay PBMCs from two individuals are mixed together in tissue culture for several days. […] In the one-way MLR test, the mononuclear cells from one of the individuals are inactivated (usually by treatment with mitomycin C or irradiation), thereby allowing only the untreated remaining population of mononuclear cells, such as lymphocytes, to proliferate in response to foreign histocompatibility antigens.
The immunosuppressive effect of test compounds was also investigated using MLR assays. Peripheral blood mononuclear cells (PBMCs) were isolated from heparinized blood of healthy donors by density-gradient centrifugation over Lymphoprep. […] RPMI1788 cells were treated with 30 μg/mL mitomycin C for 20 min at 37° C., washed four times with medium, and finally suspended in complete RPMI medium to a density of 0.45×10^6 cells/mL. An amount of 100 μL of each cell suspension was mixed with 20 μL of diluted compound. The mixed cells were cultured at 37° C. for 6 days in 5% CO2. […] Thereafter, the cells were harvested on glass filter paper and the counts per minute (cpm) determined in a liquid scintillation counter.

[6] = molecular target: PI4KIIIβ (PI4KB, PI4K beta) (Homo sapiens, UniProt Q9UBF8); assay: Commercial kinase activity assay (Invitrogen, ADP TR-FRET); conditions: for inhibition at 10 µM: read-out: % inhibition of PI4KIIIβ @ 10 μM
Experimental: PI4KB (PI4K beta) The 2× PI4KB (PI4K beta)/PI Lipid Kinase Substrate mixture was prepared in 50 mM HEPES pH 7.5, 0.1% CHAPS, 1 mM EGTA, 4 mM MgCl2. […] After a 60-minute development reaction incubation at room temperature, the fluorescence was read on plate reader and the data analyzed.

[7] = molecular target: T1, PI3KCB (PI3K p110β/p85α (h)) (Homo sapiens, UniProt P42338); assay: Commercial kinase activity assay (Millipore, HTRF); assay type: biochemical; conditions: 10 μM test compound
T1 construct: purchased Millipore
Experimental: LOK (h) was incubated with 8 mM MOPS pH 7.0, 0.2 mM EDTA, 250 μM […], 10 mM MgAcetate and [γ-^33P-ATP] (specific activity approx. 500 cpm/pmol, concentration as required). The reaction was initiated by the addition of the MgATP mix. After incubation for 40 minutes at room temperature, the reaction was stopped by the addition of 3% phosphoric acid solution. 10 μL of the reaction was then spotted onto a P30 filtermat and washed three times for 5 minutes in 75 mM phosphoric acid and once in methanol prior to drying and scintillation counting. PI3K p110β/p85α (h) PI3K (p110β/p85α) (h) was incubated in assay buffer containing 10 μM phosphatidylinositol-4,5-bisphosphate and MgATP (concentration as required). The reaction was initiated by the addition of the MgATP mix. After incubation for 30 minutes at room temperature, the reaction was stopped by the addition of stop solution containing EDTA and biotinylated phosphatidylinositol-3,4,5-trisphosphate. Finally, detection buffer was added, which contains europium-labelled anti-GST monoclonal antibody, GST-tagged GRP1 PH domain and streptavidinallophycocyanin. The plate was then read in time-resolved fluorescence mode and the homogenous time-resolved fluorescence (HTRF®) signal determined according to the formula HTRF=10000×(Em665nm/Em620 nm). […]

LOK (h) = molecular target: T2, LOK (h) (Homo sapiens, UniProt O94804); assay: Commercial kinase activity assay (Millipore, 33P-ATP filter); assay type: biochemical; conditions: 10 μM test compound
T2 construct: purchased Millipore
Experimental: (§1) LOK (h) was incubated with 8 mM MOPS pH 7.0, 0.2 mM EDTA, 250 μM […], 10 mM MgAcetate and [γ-^33P-ATP] (specific activity approx. 500 cpm/pmol, concentration as required). The reaction was initiated by the addition of the MgATP mix. After incubation for 40 minutes at room temperature, the reaction was stopped by the addition of 3% phosphoric acid solution. 10 μL of the reaction was then spotted onto a P30 filtermat and washed three times for 5 minutes in 75 mM phosphoric acid and once in methanol prior to drying and scintillation counting. PI3K p110β/p85α (h) PI3K (p110β/p85α) (h) was incubated in assay buffer containing 10 μM phosphatidylinositol-4,5-bisphosphate and MgATP (concentration as required). The reaction was initiated by the addition of the MgATP mix. After incubation for 30 minutes at room temperature, the reaction was stopped by the addition of stop solution containing EDTA and biotinylated phosphatidylinositol-3,4,5-trisphosphate. Finally, detection buffer was added, which contains europium-labelled anti-GST monoclonal antibody, GST-tagged GRP1 PH domain and streptavidinallophycocyanin. The plate was then read in time-resolved fluorescence mode and the homogenous time-resolved fluorescence (HTRF®) signal determined according to the formula HTRF=10000×(Em665nm/Em620 nm). YSK4 (h) YSK4 (h) was incubated with 8 mM MOPS pH 7.0, 0.2 mM EDTA, 250 […], 10 mM MgAcetate and [γ-^33P-ATP] (specific activity approx. 500 cpm/pmol, concentration as required). The reaction was initiated by the addition of the MgATP mix. After incubation for 40 minutes at room temperature, the reaction was stopped by the addition of 3% phosphoric acid solution. 10 μL of the reaction was then spotted onto a P30 filtermat and washed three times for 5 minutes in 75 mM phosphoric acid and once in methanol prior to drying and scintillation counting. PI4KA (PI4K alpha) The 2× PI4KA (PI4K alpha)/PI Lipid Kinase Substrate mixture was prepared in 20 mM Tris, pH 7.5, 0.4% Triton X-100, 5 mM MgCl2, 0.5 mM EGTA. The final 10 μL Kinase Reaction consisted of 75-300 ng PI4KA (PI4K alpha) and 100 μM PI Lipid Kinase Substrate in 7.5 mM HEPES, 10 mM Tris, pH 7.5, 0.2% Triton X-100, 2.5 mM MgCl2, 0.25 mM EGTA. After the 1 hour Kinase Reaction incubation, 5 μL of Detection Mix consisting of a europium labeled anti-ADP antibody, an Alexa Fluor® 647 labeled ADP tracer, and EDTA (to stop the kinase reaction) was added to the assay well. ADP formed by the kinase reaction (in the absence of an inhibitor) displaced the Alexa Fluor® 647 labeled ADP tracer from the antibody, resulting in a decrease in the TR-FRET signal. […] PI4KB (PI4K beta) The 2× PI4KB (PI4K beta)/PI Lipid Kinase Substrate mixture was prepared in 50 mM HEPES pH 7.5, 0.1% CHAPS, 1 mM EGTA, 4 mM MgCl2. […]

YSK4 (h) = molecular target: T3, YSK4 (h) (Homo sapiens, UniProt Q56UN5); assay: as above; assay type: biochemical; conditions: 10 μM test compound
T3 construct: purchased Millipore
T3 sequence (Q56UN5 1-1328): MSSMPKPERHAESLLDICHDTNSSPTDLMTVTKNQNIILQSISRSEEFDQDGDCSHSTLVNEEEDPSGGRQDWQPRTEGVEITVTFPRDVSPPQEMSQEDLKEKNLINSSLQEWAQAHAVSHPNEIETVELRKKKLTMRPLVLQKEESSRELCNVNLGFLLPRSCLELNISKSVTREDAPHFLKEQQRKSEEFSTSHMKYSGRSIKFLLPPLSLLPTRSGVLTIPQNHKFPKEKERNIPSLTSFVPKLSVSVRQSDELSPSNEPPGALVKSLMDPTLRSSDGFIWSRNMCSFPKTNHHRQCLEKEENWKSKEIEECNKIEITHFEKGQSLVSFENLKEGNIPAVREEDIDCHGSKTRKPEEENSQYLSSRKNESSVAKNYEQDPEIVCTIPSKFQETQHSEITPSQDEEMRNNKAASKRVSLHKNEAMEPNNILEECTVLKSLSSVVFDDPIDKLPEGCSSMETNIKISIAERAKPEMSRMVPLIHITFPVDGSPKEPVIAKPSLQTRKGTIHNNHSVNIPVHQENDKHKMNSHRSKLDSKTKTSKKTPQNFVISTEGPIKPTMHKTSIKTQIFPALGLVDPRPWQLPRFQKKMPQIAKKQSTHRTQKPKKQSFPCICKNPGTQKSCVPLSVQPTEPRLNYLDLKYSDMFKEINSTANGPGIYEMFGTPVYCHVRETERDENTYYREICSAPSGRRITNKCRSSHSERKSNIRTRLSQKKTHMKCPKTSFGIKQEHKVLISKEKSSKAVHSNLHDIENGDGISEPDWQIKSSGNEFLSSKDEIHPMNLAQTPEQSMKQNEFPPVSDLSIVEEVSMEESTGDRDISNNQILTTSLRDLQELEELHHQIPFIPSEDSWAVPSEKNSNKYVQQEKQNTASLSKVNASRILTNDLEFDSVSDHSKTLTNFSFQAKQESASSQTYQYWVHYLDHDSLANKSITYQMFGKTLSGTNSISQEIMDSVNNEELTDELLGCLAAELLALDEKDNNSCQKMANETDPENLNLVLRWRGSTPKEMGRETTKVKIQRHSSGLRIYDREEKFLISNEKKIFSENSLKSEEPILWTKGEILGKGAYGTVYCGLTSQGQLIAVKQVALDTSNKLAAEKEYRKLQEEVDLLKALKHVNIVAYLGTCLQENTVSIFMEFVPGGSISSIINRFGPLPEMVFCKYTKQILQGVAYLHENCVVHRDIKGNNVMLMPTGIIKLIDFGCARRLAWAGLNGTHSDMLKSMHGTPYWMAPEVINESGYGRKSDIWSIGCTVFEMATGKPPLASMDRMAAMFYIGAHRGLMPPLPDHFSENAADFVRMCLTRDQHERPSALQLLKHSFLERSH
Experimental: as §1

PAK1 = molecular target: T4, PAK1 (Homo sapiens, UniProt Q13153); assay: Commercial kinase activity assay (Invitrogen, fluorescence); assay type: biochemical; conditions: 10 μM test compound
T4 construct: made in house; host or cells: E. coli BL21-derived host (T7 phage) or HEK-293

PI4KA (PI4K alpha) = molecular target: T5, PI4KA (PI4K alpha) (Homo sapiens, UniProt P42356); assay: Commercial kinase activity assay (Invitrogen, ADP TR-FRET); assay type: biochemical; conditions: 10 μM test compound
T5 construct: purchased Invitrogen

[8] = animals with functional graft at day 60, no treatment, n=2
[9] = RPMI-1788, 144 h, read-out: IC50 MLR, 6 days culture

Chain of PI4KIIIβ (PI4KB, PI4K beta) (Q9UBF8 whole entry): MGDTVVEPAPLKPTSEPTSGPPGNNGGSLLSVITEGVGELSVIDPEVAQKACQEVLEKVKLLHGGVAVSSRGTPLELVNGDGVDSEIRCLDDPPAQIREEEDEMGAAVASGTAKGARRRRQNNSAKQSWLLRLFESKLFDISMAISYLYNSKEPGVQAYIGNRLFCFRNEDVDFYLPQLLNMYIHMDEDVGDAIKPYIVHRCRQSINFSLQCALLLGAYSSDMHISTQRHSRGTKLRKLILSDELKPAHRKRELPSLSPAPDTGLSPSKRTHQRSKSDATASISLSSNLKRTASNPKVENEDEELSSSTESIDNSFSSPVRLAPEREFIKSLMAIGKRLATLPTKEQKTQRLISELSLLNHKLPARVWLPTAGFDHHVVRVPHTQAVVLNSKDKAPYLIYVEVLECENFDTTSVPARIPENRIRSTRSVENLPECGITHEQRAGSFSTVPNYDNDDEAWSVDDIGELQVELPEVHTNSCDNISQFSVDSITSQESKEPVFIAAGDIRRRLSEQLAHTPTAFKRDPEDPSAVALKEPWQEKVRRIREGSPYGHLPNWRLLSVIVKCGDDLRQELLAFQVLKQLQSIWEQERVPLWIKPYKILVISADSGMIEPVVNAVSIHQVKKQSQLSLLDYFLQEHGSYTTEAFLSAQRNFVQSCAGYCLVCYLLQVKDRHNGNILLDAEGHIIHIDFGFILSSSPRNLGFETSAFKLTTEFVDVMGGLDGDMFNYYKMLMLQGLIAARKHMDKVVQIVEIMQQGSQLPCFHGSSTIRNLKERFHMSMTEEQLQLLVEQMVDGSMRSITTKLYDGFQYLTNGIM
T2 sequence (O94804 whole entry): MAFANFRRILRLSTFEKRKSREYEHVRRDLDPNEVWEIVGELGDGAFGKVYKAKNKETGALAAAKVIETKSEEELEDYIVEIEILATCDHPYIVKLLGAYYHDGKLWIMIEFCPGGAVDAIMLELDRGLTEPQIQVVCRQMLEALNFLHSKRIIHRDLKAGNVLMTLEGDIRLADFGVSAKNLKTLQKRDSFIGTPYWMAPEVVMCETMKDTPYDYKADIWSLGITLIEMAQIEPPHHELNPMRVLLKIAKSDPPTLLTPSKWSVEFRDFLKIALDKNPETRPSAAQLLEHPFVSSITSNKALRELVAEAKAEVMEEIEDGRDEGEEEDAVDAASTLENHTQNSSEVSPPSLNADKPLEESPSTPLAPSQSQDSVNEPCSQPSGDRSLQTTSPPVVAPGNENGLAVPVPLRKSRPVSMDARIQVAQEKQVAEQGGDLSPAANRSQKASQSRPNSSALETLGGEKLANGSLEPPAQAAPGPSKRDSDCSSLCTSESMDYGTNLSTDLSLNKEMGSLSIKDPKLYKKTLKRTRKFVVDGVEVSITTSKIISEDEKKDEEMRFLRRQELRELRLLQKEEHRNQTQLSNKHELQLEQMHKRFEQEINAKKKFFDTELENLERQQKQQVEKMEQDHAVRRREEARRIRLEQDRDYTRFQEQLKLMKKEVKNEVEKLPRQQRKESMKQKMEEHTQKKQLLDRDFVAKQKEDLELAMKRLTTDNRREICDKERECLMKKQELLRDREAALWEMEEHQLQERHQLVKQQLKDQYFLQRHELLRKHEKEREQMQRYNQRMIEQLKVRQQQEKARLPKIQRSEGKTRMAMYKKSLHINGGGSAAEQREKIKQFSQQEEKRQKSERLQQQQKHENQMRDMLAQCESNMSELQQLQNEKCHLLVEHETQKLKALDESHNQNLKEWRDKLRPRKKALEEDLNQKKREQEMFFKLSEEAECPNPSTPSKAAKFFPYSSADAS
T5 sequence (P42356 whole entry): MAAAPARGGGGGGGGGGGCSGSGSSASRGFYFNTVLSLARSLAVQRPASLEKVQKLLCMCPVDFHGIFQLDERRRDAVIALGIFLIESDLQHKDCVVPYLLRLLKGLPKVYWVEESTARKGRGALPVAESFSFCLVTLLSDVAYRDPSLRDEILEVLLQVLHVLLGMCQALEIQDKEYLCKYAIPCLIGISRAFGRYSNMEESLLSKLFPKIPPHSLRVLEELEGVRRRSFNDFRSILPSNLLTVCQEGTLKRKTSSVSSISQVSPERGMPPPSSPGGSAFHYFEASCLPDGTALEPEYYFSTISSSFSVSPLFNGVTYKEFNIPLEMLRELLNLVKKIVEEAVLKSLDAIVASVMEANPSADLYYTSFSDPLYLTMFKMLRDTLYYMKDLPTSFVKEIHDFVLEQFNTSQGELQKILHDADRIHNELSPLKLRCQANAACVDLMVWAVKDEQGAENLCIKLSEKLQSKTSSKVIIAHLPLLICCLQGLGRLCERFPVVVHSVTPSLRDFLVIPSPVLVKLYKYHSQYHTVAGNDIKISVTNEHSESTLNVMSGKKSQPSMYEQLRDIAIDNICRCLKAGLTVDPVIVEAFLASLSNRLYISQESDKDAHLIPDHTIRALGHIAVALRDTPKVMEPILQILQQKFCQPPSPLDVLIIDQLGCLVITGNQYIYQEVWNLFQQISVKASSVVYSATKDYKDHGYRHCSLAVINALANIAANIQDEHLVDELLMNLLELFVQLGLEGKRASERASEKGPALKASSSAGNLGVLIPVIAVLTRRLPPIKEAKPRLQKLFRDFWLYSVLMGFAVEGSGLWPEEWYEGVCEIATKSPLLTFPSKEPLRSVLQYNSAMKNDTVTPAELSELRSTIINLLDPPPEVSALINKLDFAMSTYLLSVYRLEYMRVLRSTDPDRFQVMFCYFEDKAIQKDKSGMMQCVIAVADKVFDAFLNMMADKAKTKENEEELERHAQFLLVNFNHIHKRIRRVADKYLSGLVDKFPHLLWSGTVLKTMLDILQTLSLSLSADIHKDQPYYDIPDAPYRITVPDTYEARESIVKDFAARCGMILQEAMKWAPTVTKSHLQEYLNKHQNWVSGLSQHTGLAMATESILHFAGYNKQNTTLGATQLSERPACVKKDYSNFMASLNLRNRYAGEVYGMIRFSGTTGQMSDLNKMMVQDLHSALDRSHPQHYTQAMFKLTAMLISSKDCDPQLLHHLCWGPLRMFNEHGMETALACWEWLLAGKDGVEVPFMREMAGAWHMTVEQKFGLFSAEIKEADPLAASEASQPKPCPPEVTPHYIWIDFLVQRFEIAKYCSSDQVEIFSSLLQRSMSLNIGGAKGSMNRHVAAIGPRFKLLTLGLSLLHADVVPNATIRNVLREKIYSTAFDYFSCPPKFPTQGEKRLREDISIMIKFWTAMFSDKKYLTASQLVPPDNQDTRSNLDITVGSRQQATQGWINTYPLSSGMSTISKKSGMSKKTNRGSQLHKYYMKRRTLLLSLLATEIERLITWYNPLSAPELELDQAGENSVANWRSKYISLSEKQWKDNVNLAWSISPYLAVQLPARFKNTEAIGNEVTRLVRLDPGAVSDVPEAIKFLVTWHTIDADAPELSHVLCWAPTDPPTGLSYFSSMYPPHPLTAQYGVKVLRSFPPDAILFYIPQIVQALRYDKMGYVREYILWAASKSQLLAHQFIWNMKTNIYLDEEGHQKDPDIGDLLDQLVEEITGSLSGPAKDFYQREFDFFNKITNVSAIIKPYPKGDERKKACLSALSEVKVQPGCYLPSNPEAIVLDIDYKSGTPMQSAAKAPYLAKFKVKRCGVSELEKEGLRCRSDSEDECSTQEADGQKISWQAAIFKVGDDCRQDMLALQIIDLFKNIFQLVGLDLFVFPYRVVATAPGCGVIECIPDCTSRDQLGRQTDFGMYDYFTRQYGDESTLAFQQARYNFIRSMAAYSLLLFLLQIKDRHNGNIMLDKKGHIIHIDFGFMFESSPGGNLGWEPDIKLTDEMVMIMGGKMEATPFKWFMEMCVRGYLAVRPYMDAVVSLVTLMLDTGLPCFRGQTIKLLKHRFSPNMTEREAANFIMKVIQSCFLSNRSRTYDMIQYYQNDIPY
T4 sequence (Q13153 whole entry): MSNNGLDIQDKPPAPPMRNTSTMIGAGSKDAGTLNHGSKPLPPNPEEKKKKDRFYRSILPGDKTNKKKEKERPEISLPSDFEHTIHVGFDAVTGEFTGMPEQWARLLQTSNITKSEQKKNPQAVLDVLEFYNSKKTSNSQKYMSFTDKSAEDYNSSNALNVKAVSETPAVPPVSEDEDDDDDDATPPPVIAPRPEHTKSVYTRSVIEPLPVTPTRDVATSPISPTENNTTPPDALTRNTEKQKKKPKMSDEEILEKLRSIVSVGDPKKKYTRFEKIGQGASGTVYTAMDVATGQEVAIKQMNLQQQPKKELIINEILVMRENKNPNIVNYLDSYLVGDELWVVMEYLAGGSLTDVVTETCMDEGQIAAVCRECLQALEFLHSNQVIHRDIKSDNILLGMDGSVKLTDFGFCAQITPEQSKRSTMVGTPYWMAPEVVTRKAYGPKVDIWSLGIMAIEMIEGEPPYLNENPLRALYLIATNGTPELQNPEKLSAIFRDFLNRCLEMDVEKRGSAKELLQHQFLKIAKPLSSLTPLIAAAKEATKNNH

Compound: Cc1ccc(NC(=O)N2CCN(c3nc(N)nc4sc(-c5cccnc5)nc34)CC2)cc1 [formula (3)]
- pIC50 ([1]; read-out: IC50 for inhibition of IFNγ release): > 9.00
- pIC50 ([1]; read-out: IC50 for inhibition of IL2 release): > 9.00
- histological scores (hyperplasia, infiltration, pannus) ([2]; joints day 42): reduced
- onset of arthritic symptoms ([2]; preventive, vs vehicle): delay the onset of arthritic symptoms
- symptom severity ([2]; preventive, vs vehicle): decrease symptom severity
- anti-CII IgG titre ([2]; serum day 42): reduced
- Surviving days (cardiac graft) ([3]; 20 mg/kg/d daily gavage, individual animals, 20 mg/kg/day): up to 13 days
- grafts continuously functioning after stopping the treatment on day 30 ([3]; 40 mg/kg per day): 3/4
- grafts with continuous survival while treatment continued ([3]; 40 mg/kg per day): 4/6
- grafts with prolonged survival at day 30 ([4]; Example 9, each group (40, 50, 60 mg/kg/d)): 3 out of 6
- day of rejection of second graft from third party donor [4, 8]: 8 days
- time second graft from same donor strain was functional [4, 8]: more than 90 days

Compound: COc1ccc(-c2c(C)nn3c(NCCN4CCOCC4)cc(C)nc23)cc1OC [T-00127-HEV1, reference compound]
- pIC50 ([5]; RPMI-1788, 144 h, read-out: IC50 MLR): 6.07

Compound: Nc1nc(N2CCN(C(=O)COc3ccc(F)cc3)CC2)c2nc(-c3cccnc3)sc2n1 [formula (4)]
- pIC50 [6]: 7.66
- inhibition at 10 µM [6]: 95%
- pIC50 [5, 9]: > 7.30
- pIC50 ([5]; read-out: IC50 MLR, 6 days culture): 7.60

Compound: CC(=O)Nc1nc(C)c(-c2ccc(Cl)c(S(=O)(=O)NCCO)c2)s1 [PIK93, reference compound]
- pIC50 [5, 9]: 6.40

Compound: Cc1cccc(NC(=O)N2CCN(c3nc(N)nc4sc(-c5cccnc5)nc34)CC2)c1 [formula (2), 4-[5-amino-2-(pyridin-3-yl)thiazolo[5,4-d]pyrimidin-7-yl]-N-m-tolylpiperazine-1-carboxamide]
- Kinase activity [7]: 82 percentage of control
- Kinase activity (LOK (h)): 98 percentage of control
- Kinase activity (YSK4 (h)): 79 percentage of control
- Kinase activity (PAK1): 108 percentage of control
- Kinase activity (PI4KA (PI4K alpha)): 90 percentage of control
- pIC50 [6]: 7.84
- inhibition at 10 µM [6]: 99.5%
